{"source": "ChEMBL document CHEMBL6092206", "about": "“Discovery and Characterization of BAY-184: A New Potent and Selective Acylsulfonamide-Benzofuran In Vivo-Active KAT6AB Inhibitor” (J Med Chem, 2024)", "key": {"[1]": {"assay": "Metabolic stability in rat hepatocyte assessed as maximum bioavailability of the drug measured for 2 to 90 mins by LC-MS/MS analysis", "type": "ADME", "conditions": "hepatocytes, time 2-90 min, read-out: Fmax"}, "[2]": {"assay": "Tmax in male Wistar rat at 1 mg/kg, po measured upto 24 hrs by LC-MS/S analysis", "type": "ADME, organism-based", "conditions": "in vivo"}, "[3]": {"assay": "AUC in male Wistar rat at 0.5 mg/kg, iv measured upto 24 hrs by LC-MS/S analysis", "type": "ADME, organism-based", "conditions": "in vivo"}, "[4]": {"assay": "Metabolic stability in dog liver microsome assessed as clearance measured for 2 to 60 mins by LC-MS/MS analysis", "type": "ADME, Canis lupus familiaris", "conditions": "microsomes, time 2-60 min"}, "[5]": {"assay": "Volume of distribution at steady state in mouse at 0.5 mg/kg, iv", "type": "ADME, organism-based", "conditions": "in vivo, read-out: Vdss"}, "[6]": {"assay": "Metabolic stability in mouse hepatocyte assessed as maximum bioavailability of the drug measured for 2 to 90 mins by LC-MS/MS analysis", "type": "ADME", "conditions": "hepatocytes, time 2-90 min, read-out: Fmax"}, "[7]": {"test_system": "MCF7", "assay": "Antiproliferative activity against human MCF7 cells assessed as inhibition of cell growth incubated for 6 days by alamar blue staining based assay relative to control", "type": "functional", "conditions": "time 6 day"}, "[8]": {"assay": "Metabolic stability in human liver microsome assessed as clearance measured for 2 to 60 mins by LC-MS/MS analysis", "type": "ADME", "conditions": "microsomes, time 2-60 min"}, "[9]": {"assay": "Toxicity in female estradiol-primed NMRI mouse assessed as tolerability at 50 to 10 mg/kg, po administered twice daily measured at 2 to 3 days", "type": "organism-based", "conditions": "in vivo, dose lower 50 mg/kg, time lower 2 day, dose upper 10 mg/kg, time upper 3 day"}, "[10]": {"assay": "Plasma protein binding in human assessed as unbound fraction equilibrium dialysis based LC-MS/MS analysis", "type": "ADME, cell-free"}, "[11]": {"test_system": "BT-549", "assay": "Antiproliferative activity against human BT-549 cells assessed as inhibition of cell growth incubated for 6 days by alamar blue staining based assay relative to control", "type": "functional", "conditions": "time 6 day"}, "[12]": {"assay": "Metabolic stability in human hepatocyte assessed as maximum bioavailability of the drug measured for 2 to 90 mins by LC-MS/MS analysis", "type": "ADME", "conditions": "hepatocytes, time 2-90 min, read-out: Fmax"}, "[13]": {"test_system": "ZR-75-1", "assay": "Antitumor activity against human ZR-75-1 cells xenografted in female estradiol-primed NMRI mouse assessed as reduction in H3K23 acetylation level in tumor at 100 mg/kg, po administered twice daily measured after 1 to 3 hrs by immunohistochemical analysis", "type": "functional, organism-based", "conditions": "time 1-3 hrs"}, "[14]": {"assay": "Mutagenicity in Salmonella typhimurium TA100 by Ames test", "type": "toxicity", "conditions": "salmonella enterica subsp. enterica serovar typhimurium"}, "[15]": {"assay": "Stability in rat plasma assessed as parent compound remaining after 4 hrs", "type": "ADME, cell-free"}, "[16]": {"assay": "Metabolic stability in human liver microsome assessed as maximum bioavailability of the drug measured for 2 to 60 mins by LC-MS/MS analysis", "type": "ADME", "conditions": "liver microsomes, time 2-60 min, read-out: Fmax"}, "[17]": {"assay": "Stability in human plasma assessed as parent compound remaining after 4 hrs", "type": "ADME, cell-free"}, "[18]": {"assay": "Plasma protein binding in mouse assessed as unbound fraction equilibrium dialysis based LC-MS/MS analysis", "type": "ADME, cell-free"}, "[19]": {"test_system": "HCC1806", "assay": "Antiproliferative activity against human HCC1806 cells assessed as inhibition of cell growth incubated for 6 days by alamar blue staining based assay relative to control", "type": "functional", "conditions": "time 6 day"}, "[20]": {"target": "Histone acetyltransferase KAT5 (Homo sapiens, UniProt Q92993)", "sequence (Q92993 whole entry)": "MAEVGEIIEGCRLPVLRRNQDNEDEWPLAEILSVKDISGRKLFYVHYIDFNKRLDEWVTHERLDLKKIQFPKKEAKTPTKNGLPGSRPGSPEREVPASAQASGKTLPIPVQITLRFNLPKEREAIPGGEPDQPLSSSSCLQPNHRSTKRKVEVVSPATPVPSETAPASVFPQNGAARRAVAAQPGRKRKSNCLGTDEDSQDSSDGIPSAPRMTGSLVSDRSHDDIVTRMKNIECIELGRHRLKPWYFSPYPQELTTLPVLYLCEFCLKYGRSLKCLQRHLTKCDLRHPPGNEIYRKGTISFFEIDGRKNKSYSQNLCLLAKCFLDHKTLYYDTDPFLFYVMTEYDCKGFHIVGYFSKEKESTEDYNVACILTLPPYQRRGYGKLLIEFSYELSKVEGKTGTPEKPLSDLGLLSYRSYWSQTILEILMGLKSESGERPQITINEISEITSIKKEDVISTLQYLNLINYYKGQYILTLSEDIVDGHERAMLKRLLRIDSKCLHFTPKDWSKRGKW", "assay": "Inhibition of full length N-terminal GST-tagged human recombinant KAT5 expressed in Sf9 insect cells using H4-derived peptide as substrate incubated for 30 mins in presence of AcCoA by TR-FRET assay"}, "[21]": {"assay": "Clearance in mouse at 0.5 mg/kg, iv", "type": "ADME, organism-based", "conditions": "in vivo"}, "[22]": {"assay": "Oral bioavailability in male Wistar rat at 1 mg/kg measured upto 24 hrs by LC-MS/S analysis", "type": "ADME, organism-based", "conditions": "in vivo"}, "[23]": {"assay": "Stability of compound in HCL buffer at pH 1 measured for 24 hrs by HPLC analysis", "type": "physicochemical", "conditions": "pH 1, 24 h"}, "[24]": {"assay": "Metabolic stability in dog hepatocyte assessed as maximum bioavailability of the drug measured for 2 to 90 mins by LC-MS/MS analysis", "type": "ADME, Canis lupus familiaris", "conditions": "hepatocytes, time 2-90 min, read-out: Fmax"}, "[25]": {"assay": "Stability of compound in borate buffer at pH 10 measured for 24 hrs by HPLC analysis", "type": "physicochemical", "conditions": "pH 10, 24 h"}, "[26]": {"target": "Histone acetyltransferase KAT7 (Homo sapiens, UniProt O95251)", "sequence (O95251 whole entry)": "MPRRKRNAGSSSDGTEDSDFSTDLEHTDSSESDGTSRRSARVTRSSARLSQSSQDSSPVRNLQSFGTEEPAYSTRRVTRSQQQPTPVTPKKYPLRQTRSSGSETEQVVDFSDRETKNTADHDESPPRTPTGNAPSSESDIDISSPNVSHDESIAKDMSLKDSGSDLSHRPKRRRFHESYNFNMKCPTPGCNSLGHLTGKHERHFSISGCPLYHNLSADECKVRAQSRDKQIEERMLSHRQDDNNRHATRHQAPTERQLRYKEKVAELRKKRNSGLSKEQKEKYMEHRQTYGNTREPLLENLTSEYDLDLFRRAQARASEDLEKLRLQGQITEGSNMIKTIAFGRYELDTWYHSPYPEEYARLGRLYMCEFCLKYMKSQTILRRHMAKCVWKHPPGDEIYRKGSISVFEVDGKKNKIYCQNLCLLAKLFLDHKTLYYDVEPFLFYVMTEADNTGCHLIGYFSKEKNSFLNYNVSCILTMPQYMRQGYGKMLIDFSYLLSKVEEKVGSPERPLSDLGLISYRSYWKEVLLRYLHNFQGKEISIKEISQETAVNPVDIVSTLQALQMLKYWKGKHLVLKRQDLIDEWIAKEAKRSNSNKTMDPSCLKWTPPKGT", "assay": "Inhibition of full length N-terminal GST-tagged human recombinant KAT7 expressed in Sf9 insect cells using H4-derived peptide as substrate incubated for 30 mins in presence of AcCoA by TR-FRET assay"}, "[27]": {"assay": "Metabolic stability in human hepatocyte assessed as clearance measured for 2 to 90 mins by LC-MS/MS analysis", "type": "ADME, cell-based", "conditions": "hepatocytes, time 2-90 min"}, "[28]": {"target": "Voltage-gated inwardly rectifying potassium channel KCNH2 (Homo sapiens, UniProt Q12809)", "sequence (Q12809 whole entry)": "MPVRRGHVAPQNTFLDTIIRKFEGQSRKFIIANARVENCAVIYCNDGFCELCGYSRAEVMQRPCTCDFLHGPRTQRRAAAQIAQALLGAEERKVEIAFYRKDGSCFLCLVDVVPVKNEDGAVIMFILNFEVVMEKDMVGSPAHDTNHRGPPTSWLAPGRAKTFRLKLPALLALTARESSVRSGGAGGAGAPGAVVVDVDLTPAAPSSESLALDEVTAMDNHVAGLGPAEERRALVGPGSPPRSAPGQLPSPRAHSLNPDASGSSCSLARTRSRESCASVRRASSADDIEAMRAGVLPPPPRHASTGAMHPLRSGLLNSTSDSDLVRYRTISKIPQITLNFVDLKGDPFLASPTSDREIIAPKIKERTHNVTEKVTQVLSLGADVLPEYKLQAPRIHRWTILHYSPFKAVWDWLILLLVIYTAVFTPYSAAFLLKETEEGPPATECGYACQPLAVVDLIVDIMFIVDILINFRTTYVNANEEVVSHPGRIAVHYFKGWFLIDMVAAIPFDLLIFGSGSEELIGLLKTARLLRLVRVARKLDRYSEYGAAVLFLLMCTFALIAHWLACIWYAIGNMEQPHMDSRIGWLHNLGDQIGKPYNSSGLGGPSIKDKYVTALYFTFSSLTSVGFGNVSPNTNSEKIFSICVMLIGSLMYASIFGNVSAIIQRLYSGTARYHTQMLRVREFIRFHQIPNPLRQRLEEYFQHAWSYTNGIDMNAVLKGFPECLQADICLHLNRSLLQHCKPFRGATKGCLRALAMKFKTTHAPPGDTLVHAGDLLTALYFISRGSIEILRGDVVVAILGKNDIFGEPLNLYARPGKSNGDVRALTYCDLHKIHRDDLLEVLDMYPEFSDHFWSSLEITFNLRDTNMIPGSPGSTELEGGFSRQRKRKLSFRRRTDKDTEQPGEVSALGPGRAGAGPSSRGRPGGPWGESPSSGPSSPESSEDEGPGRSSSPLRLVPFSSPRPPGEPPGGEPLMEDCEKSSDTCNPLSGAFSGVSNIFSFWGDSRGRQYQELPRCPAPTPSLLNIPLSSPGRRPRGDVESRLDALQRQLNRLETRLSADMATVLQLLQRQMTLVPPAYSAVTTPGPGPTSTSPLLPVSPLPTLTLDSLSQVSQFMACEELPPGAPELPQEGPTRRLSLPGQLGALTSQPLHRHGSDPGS", "assay": "Inhibition of hERG", "type": "toxicity"}, "[29]": {"test_system": "HaCaT", "assay": "Cytotoxicity against human HaCaT cells incubated for 72 hrs", "type": "toxicity, cell-based"}, "[30]": {"assay": "Apparent permeability across apical to basolateral side in human Caco-2 cells at 2 uM pH 7.2 measured for 2 hrs by LC-MS/MS analysis", "type": "ADME, cell-based", "conditions": "caco-2, pH 7.2, 2 h, 2 µM"}, "[31]": {"assay": "AUC in male Wistar rat at 1 mg/kg, po measured upto 24 hrs by LC-MS/S analysis", "type": "ADME, organism-based", "conditions": "in vivo"}, "[32]": {"target": "Histone acetyltransferase KAT6A (Homo sapiens, UniProt Q92794)", "sequence (Q92794 whole entry, looked up)": "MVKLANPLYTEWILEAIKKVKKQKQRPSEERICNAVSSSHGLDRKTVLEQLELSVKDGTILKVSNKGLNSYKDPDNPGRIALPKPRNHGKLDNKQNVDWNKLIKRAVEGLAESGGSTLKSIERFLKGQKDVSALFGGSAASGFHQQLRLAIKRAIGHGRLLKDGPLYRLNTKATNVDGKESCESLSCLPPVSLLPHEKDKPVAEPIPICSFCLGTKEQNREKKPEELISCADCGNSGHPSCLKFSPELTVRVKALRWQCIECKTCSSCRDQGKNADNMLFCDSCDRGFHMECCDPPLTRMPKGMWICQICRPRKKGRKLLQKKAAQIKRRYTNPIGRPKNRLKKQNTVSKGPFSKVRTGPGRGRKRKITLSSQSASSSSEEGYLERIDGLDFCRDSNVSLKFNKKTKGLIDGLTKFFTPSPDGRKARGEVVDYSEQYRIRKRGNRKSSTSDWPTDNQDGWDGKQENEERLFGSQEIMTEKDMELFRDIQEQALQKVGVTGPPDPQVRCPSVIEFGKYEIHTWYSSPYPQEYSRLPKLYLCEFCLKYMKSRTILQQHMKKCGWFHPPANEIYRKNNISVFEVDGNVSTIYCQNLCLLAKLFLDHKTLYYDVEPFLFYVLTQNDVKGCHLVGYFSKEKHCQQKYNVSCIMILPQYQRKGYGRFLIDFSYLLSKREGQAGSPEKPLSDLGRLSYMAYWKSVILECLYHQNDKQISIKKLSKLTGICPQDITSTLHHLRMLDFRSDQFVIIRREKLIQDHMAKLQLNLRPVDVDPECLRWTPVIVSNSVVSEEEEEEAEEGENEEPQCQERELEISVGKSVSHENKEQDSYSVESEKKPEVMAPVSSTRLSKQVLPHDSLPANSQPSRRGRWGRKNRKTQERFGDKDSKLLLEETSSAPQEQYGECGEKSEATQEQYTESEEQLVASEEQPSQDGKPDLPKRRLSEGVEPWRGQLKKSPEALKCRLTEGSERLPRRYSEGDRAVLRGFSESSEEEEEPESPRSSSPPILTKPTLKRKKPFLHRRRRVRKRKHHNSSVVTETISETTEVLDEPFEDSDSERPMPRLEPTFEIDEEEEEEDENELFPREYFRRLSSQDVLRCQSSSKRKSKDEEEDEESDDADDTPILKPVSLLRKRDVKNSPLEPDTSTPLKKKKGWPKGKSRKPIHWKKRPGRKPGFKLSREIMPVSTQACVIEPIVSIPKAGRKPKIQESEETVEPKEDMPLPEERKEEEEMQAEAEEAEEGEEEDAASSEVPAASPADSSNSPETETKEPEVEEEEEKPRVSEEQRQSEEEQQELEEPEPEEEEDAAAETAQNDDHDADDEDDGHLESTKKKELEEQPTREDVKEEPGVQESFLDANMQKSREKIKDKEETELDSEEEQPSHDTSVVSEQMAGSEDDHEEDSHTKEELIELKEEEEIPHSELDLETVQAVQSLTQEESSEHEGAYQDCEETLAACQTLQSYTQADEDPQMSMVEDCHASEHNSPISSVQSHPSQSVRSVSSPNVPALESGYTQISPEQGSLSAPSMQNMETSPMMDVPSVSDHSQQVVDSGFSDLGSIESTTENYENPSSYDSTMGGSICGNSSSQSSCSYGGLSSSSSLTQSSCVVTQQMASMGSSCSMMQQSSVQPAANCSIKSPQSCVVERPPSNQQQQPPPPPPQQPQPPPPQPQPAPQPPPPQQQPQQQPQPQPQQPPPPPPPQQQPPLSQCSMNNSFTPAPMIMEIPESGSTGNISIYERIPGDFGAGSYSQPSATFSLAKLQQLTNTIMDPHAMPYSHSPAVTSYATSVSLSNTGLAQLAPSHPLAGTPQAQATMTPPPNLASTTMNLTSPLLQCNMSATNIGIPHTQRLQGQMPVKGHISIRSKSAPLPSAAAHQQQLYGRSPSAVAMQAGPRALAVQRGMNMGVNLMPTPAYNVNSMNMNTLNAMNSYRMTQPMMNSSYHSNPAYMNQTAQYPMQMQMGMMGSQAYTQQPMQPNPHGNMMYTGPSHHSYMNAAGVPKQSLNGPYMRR", "assay": "Inhibition of KAT6A in human ZR-75-1 cells assessed as reduction in H3K23ac level at 1 uM incubated at 10 to 2880 mins by Western blot analysis", "type": "cell-based", "conditions": "time 10-2880 min"}, "[33]": {"assay": "Mutagenicity in Salmonella typhimurium TA98 by Ames test", "type": "toxicity", "conditions": "salmonella enterica subsp. enterica serovar typhimurium"}, "[34]": {"assay": "Antiproliferative activity against human HCC1500 cells assessed as inhibition of cell growth incubated for 6 days by alamar blue staining based assay relative to control", "type": "functional", "conditions": "time 6 day"}, "[35]": {"assay": "Metabolic stability in dog liver microsome assessed as maximum bioavailability of the drug measured for 2 to 60 mins by LC-MS/MS analysis", "type": "ADME, Canis lupus familiaris", "conditions": "liver microsomes, time 2-60 min, read-out: Fmax"}, "[36]": {"test_system": "ZR-75-1", "assay": "Antitumor activity against human ZR-75-1 cells xenografted in female estradiol-primed NMRI mouse assessed as reduction in H3K23 acetylation level in tumor at 100 mg/kg, po administered twice daily measured after 24 hrs by immunohistochemical analysis", "type": "functional, organism-based"}, "[37]": {"test_system": "CAMA-1", "assay": "Antiproliferative activity against human CAMA-1 cells assessed as inhibition of cell growth incubated for 6 days by alamar blue staining based assay relative to control", "type": "functional", "conditions": "time 6 day"}, "[38]": {"assay": "Metabolic stability in rat liver microsome assessed as maximum bioavailability of the drug measured for 2 to 60 mins by LC-MS/MS analysis", "type": "ADME", "conditions": "liver microsomes, time 2-60 min, read-out: Fmax"}, "[39]": {"test_system": "LCLC-97TM1", "assay": "Antiproliferative activity against human LCLC-97TM1 cells assessed as inhibition of cell proliferation incubated for 6 days by alamar blue staining based assay", "type": "functional", "conditions": "time 6.0 day"}, "[40]": {"assay": "Volume of distribution at steady state in male Wistar rat at 0.5 mg/kg, iv or 1 mg/kg, po measured upto 24 hrs by LC-MS/S analysis", "type": "ADME, organism-based", "conditions": "in vivo"}, "[41]": {"test_system": "ZR-75-1", "assay": "Antitumor activity against human ZR-75-1 cells xenografted in po dosed female estradiol-primed NMRI mouse assessed as inhibition of tumor growth administered twice daily measured at 2 to 3 days", "type": "functional, organism-based", "conditions": "time 2-3 day"}, "[42]": {"test_system": "MDA-MB-361", "assay": "Antiproliferative activity against human MDA-MB-361 cells assessed as inhibition of cell growth incubated for 6 days by alamar blue staining based assay relative to control", "type": "functional", "conditions": "time 6 day"}}, "note": "Activity calls are given as the source filed them. No cut-off for these calls is given here."}
{"smiles": "CN(C)c1ccc2cc(C(=O)NS(=O)(=O)c3ccccc3-c3ccccc3)oc2c1", "values": [{"measurement": "Fh", "setting": "[1]", "value": 42, "unit": "%"}, {"measurement": "Tmax", "setting": "[2]", "value": 30, "unit": "min"}, {"measurement": "AUC", "setting": "[3]", "value": 5.5, "unit": "kg·h/L"}, {"measurement": "CLH", "setting": "[4]", "value": 6.83, "unit": "mL/min/kg"}, {"measurement": "Vd", "setting": "[5]", "value": 0.32, "unit": "L/kg"}, {"measurement": "Fh", "setting": "[6]", "value": 33, "unit": "%"}, {"measurement": "inhibition (INH)", "setting": "[7]", "value": 66, "unit": "%"}, {"measurement": "CLH", "setting": "[8]", "value": 12.8, "unit": "mL/min/kg"}, {"measurement": "Activity", "setting": "[9]", "value": "Non-toxic"}, {"measurement": "Fu", "setting": "[10]", "value": 0.042, "unit": "%"}, {"measurement": "inhibition (INH)", "setting": "[11]", "value": 0, "unit": "%"}, {"measurement": "Fh", "setting": "[12]", "value": 25, "unit": "%"}, {"measurement": "Activity", "setting": "[13]", "value": "Active"}, {"measurement": "Activity", "setting": "[14]", "value": "Non-toxic"}, {"measurement": "Stability", "setting": "[15]", "value": "Stable"}, {"measurement": "Fh", "setting": "[16]", "value": 41, "unit": "%"}, {"measurement": "Stability", "setting": "[17]", "value": "Stable"}, {"measurement": "Fu", "setting": "[18]", "value": 0.31, "unit": "%"}, {"measurement": "inhibition (INH)", "setting": "[19]", "value": 0, "unit": "%"}, {"measurement": "IC50", "setting": "[20]", "value": 14.3, "unit": "µM"}, {"measurement": "clearance", "setting": "[21]", "value": 9.33, "unit": "mL/min/kg"}, {"measurement": "bioavailability", "setting": "[22]", "value": 60, "unit": "%"}, {"measurement": "Stability", "setting": "[23]", "value": "Stable"}, {"measurement": "Fh", "setting": "[24]", "value": 53, "unit": "%"}, {"measurement": "Stability", "setting": "[25]", "value": "Stable"}, {"measurement": "IC50", "setting": "[26]", "value": 1.07, "unit": "µM"}, {"measurement": "CLH", "setting": "[27]", "value": 16.5, "unit": "mL/min/kg"}, {"measurement": "inhibition (INH)", "setting": "[28]", "value": "Not_active"}, {"measurement": "Activity", "setting": "[29]", "value": "Non-toxic"}, {"measurement": "Papp", "setting": "[30]", "value": 14.6, "unit": "×10⁻⁶ cm/s"}, {"measurement": "AUC", "setting": "[31]", "value": 3.3, "unit": "kg·h/L"}, {"measurement": "inhibition", "setting": "[32]", "value": "Active"}, {"measurement": "Activity", "setting": "[33]", "value": "Non-toxic"}, {"measurement": "inhibition (INH)", "setting": "[34]", "value": 49, "unit": "%"}, {"measurement": "Fh", "setting": "[35]", "value": 80, "unit": "%"}, {"measurement": "Activity", "setting": "[36]", "value": "Active"}, {"measurement": "inhibition (INH)", "setting": "[37]", "value": 68, "unit": "%"}, {"measurement": "Fh", "setting": "[38]", "value": 28, "unit": "%"}, {"measurement": "Activity", "setting": "[39]", "value": "Active"}, {"measurement": "Vdss", "setting": "[40]", "value": 0.13, "unit": "L/kg"}, {"measurement": "Activity", "setting": "[41]", "value": "Dose-dependent-effect"}, {"measurement": "inhibition (INH)", "setting": "[42]", "value": 22, "unit": "%"}]}
